# “And” between values parts separate entries of the source, which are not always exact repeats. Equal entries are not always repeated. Marks after values point to notes of the source that are not given here.
# Columns and labels:
# [1] = Embryo/fetal developmental toxicity, rat
# [2] = In vitro genetic toxicity studies
# [3] = Pharmacokinetics, rat; type: in vivo, Sprague-Dawley rats
# [4] = Plasma protein binding, rat; type: in vitro ADME; conditions: 100 μM (41700 ng/mL)
# Source text: […]. […] […].
# [5] = Pharmacokinetics, monkey; type: in vivo, Cynomolgus monkeys
# [6] = Pharmacokinetics, dog; type: in vivo, Beagle dogs; conditions: for Foral: AUC0-last; for clearance / Vd / AUC(0-inf) / AUC(0-t) / Cmax / half-life / Tmax: beagle, in vivo; for Vd: read-out: Vss; for AUC(0-t): read-out: AUC0-last (AUC0-24)
# [7] = test system: Caco-2 cell monolayers; assay: Membrane permeability, Caco-2 cell monolayers; type: in vitro ADME, human
# [8] = 13-week repeat-dose safety study, monkey
# [9] = test system: PI3K-δ and PI3K-γ; assay: Phase 1 study in advanced hematologic malignancies, pharmacodynamics; type: in vivo, human
# Procedure: PK and PD markers were evaluated after the first dose (e.g., 8 mg BID) and at steady state. PD activity (PI3K inhibition) in whole blood was evaluated using a basophil activation assay which measured reduction in CD63 expression on the surface of basophils following ex vivo stimulation.
# [10] = Embryo/fetal developmental toxicity, rabbit
# [11] = In vivo rat micronucleus assay
# [12] = Single-dose toxicity study (MTD); conditions: monkey, in vivo, po
# [13] = 13-week repeat-dose safety study, rat
# [14] = Tissue distribution of radiolabelled compound; type: in vivo; conditions: rat, radiolabelled Compound 292, majority of tissues
# [15] = test system: hemodynamic and electrocardiographic parameters; assay: Cardiovascular telemetry study; type: in vivo, cynomolgus monkey; conditions: male monkeys
# Source text: Four non-naive, male monkeys implanted with radiotelemetry transmitters were utilized during the conduct of this study.
# [16] = Pharmacokinetics, mouse; type: in vivo, BALB/c mice
# [17] = target: T1, human P-glycoprotein (Homo sapiens, UniProt P08183); assay: Interaction with P-glycoprotein, Caco-2; type: in vitro ADME; conditions: Caco-2 cell monolayers
# T1 construct: endogenous in cells; host or cells: Caco-2
# T1 sequence (P08183 whole entry): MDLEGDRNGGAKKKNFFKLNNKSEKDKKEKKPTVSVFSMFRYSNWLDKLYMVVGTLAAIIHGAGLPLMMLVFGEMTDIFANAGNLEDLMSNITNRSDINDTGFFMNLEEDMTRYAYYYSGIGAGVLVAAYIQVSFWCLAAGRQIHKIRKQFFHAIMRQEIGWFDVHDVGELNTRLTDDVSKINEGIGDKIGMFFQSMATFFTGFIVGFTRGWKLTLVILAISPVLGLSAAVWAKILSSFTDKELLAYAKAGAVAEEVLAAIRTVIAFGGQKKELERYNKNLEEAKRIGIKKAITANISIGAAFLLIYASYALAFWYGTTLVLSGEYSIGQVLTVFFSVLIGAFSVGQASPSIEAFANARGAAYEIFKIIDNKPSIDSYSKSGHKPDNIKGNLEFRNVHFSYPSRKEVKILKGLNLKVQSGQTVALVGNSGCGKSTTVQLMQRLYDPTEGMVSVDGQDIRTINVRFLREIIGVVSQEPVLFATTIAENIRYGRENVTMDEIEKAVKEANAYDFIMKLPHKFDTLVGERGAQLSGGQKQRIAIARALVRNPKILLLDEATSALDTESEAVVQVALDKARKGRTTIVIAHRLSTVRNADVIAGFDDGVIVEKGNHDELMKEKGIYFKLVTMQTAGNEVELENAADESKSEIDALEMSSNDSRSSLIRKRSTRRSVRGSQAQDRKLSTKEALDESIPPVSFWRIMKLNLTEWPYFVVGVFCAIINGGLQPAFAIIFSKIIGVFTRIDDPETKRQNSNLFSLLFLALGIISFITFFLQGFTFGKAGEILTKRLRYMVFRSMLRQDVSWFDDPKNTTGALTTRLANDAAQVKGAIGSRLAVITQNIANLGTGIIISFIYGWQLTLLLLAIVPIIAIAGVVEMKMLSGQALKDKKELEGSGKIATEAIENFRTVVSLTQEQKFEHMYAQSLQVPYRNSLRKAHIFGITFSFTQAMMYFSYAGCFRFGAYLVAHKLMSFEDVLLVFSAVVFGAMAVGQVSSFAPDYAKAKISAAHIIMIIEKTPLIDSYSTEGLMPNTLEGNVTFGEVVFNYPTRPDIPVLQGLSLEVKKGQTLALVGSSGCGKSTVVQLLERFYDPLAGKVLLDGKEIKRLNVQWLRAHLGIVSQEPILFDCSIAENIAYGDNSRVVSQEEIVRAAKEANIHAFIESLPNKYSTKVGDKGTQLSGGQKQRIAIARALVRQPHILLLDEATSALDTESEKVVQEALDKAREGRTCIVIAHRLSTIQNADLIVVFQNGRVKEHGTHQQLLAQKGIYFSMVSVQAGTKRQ
# [18] = Sprague-Dawley, in vivo, IV, 2 mg/kg
# [19] = Sprague-Dawley, in vivo, PO, 10 mg/kg
# [20] = po, 5 mg/kg, 5 mg/kg (study with 0.5 mg/kg IV)
# [21] = po, 5 mg/kg, 5 mg/kg (study with 1 mg/kg IV)
smiles,measurement,setting,value
C[C@H](Nc1ncnc2[nH]cnc12)c1cc2cccc(Cl)c2c(=O)n1-c1ccccc1 [Compound 292],NOAEL,"[1]; female, rat, in vivo",35 mg/kg/day
same,mean AUC0-24 hr at the NOAEL,"[1]; pregnant rats, last day of dosing",62200 ng·h/mL
same,maternal and fetal NOAEL,[1]; rat,210 mg/m^2/day
same,genetic toxicity,[2],no genetic toxicity
same,clearance,[3],low to moderate
same,half-life,[3],less than 2 hrs
same,volume of distribution,[3],high
same,Foral,"[3]; PO, 10 mg/kg",57%
same,AUC(0-inf),[3]; [18],1160 ng·h/mL
same,AUC(0-t),[3]; [18],1150 ng·h/mL
same,Cmax,[3]; [18],1520 ng/mL
same,Tmax,[3]; [18],0.083 h
same,clearance,"[3]; Sprague-Dawley, in vivo, IV, 2 mg/kg, read-out: Cl (converted)",30.5 mL/min/kg
same,half-life,"[3]; Sprague-Dawley, in vivo, IV, 2 mg/kg, read-out: T1/2 (converted)",0.73 h
same,Vd,"[3]; Sprague-Dawley, in vivo, IV, 2 mg/kg, read-out: Vss",1.66 L/kg
same,AUC(0-inf),[3]; [19],3300 ng·h/mL
same,AUC(0-t),[3]; [19],2930 ng·h/mL
same,Cmax,[3]; [19],785 ng/mL
same,Tmax,[3]; [19],1.2 h
same,half-life,"[3]; Sprague-Dawley, in vivo, PO, 10 mg/kg, read-out: T1/2 (converted)",2.4 h
same,protein bound,[4],85.8%
same,clearance,[5]; monkey,low to moderate
same,volume of distribution,[5]; monkey,high
same,AUC0-last,"[5]; monkey, IV, 1 mg/kg",2357 ng·h/mL
same,AUC(0-inf),"[5]; monkey, IV, 1 mg/kg",2379 ng·h/mL
same,Cl,"[5]; monkey, IV, 1 mg/kg",7.17 mL/min/kg
same,Cmax,"[5]; monkey, IV, 1 mg/kg",1545 ng/mL
same,T1/2,"[5]; monkey, IV, 1 mg/kg",5.0 h
same,Tmax,"[5]; monkey, IV, 1 mg/kg",0.083 h
same,Vss,"[5]; monkey, IV, 1 mg/kg",1.27 L/kg
same,AUC0-last,"[5]; monkey, PO, 5 mg/kg",4596 ng·h/mL
same,AUC(0-inf),"[5]; monkey, PO, 5 mg/kg",4685 ng·h/mL
same,Cmax,"[5]; monkey, PO, 5 mg/kg",1327 ng/mL
same,Foral,"[5]; monkey, PO, 5 mg/kg",40%
same,T1/2,"[5]; monkey, PO, 5 mg/kg",5.4 h
same,Tmax,"[5]; monkey, PO, 5 mg/kg",1.5 h
same,half-life,[5]; monkeys,5 h
same,Foral,"[6]; PO, 5 mg/kg, 0.5 mg/kg IV dose as reference","97^g,i %"
same,Foral,"[6]; PO, 5 mg/kg, 1 mg/kg IV dose as reference","40% and 40^h,i %"
same,clearance,"[6]; IV, 0.5 mg/kg",0.85 mL/min/kg
same,Vd,"[6]; IV, 0.5 mg/kg",0.13 L/kg
same,clearance,"[6]; IV, 1 mg/kg",3.23 mL/min/kg
same,Vd,"[6]; IV, 1 mg/kg",0.493 L/kg
same,AUC(0-inf),"[6]; iv, 0.5 mg/kg",11900 ng·h/mL
same,AUC(0-t),"[6]; iv, 0.5 mg/kg, IV, 0.5 mg/kg",11700 ng·h/mL
same,Cmax,"[6]; iv, 0.5 mg/kg, IV, 0.5 mg/kg, read-out: Cmax (reported value is C0)",4410 ng/mL
same,half-life,"[6]; iv, 0.5 mg/kg, IV, 0.5 mg/kg, read-out: T1/2 (converted)",2 h
same,AUC(0-inf),"[6]; iv, 1 mg/kg",6270 ng·h/mL
same,AUC(0-t),"[6]; iv, 1 mg/kg, IV, 1 mg/kg",5880 ng·h/mL
same,Cmax,"[6]; iv, 1 mg/kg, IV, 1 mg/kg, read-out: Cmax (reported value is C0)",1800 ng/mL
same,half-life,"[6]; iv, 1 mg/kg, IV, 1 mg/kg, read-out: T1/2 (converted)",1.83 h
same,AUC(0-inf),[6]; [20],107000 ng·h/mL
same,Tmax,[6]; [20],3 h
same,AUC(0-inf),[6]; [21],13800 ng·h/mL
same,Tmax,[6]; [21],1.33 h
same,AUC(0-t),"[6]; po, 5 mg/kg, PO, 5 mg/kg (study with 0.5 mg/kg IV)",105000 ng·h/mL
same,Cmax,"[6]; po, 5 mg/kg, PO, 5 mg/kg (study with 0.5 mg/kg IV), read-out: Cmax",9600 ng/mL
same,half-life,"[6]; po, 5 mg/kg, PO, 5 mg/kg (study with 0.5 mg/kg IV), read-out: T1/2 (converted)",3.9 h
same,AUC(0-t),"[6]; po, 5 mg/kg, PO, 5 mg/kg (study with 1 mg/kg IV)",10900 ng·h/mL
same,Cmax,"[6]; po, 5 mg/kg, PO, 5 mg/kg (study with 1 mg/kg IV), read-out: Cmax",2370 ng/mL
same,half-life,"[6]; po, 5 mg/kg, PO, 5 mg/kg (study with 1 mg/kg IV), read-out: T1/2 (converted)",3.15 h
same,half-life,[6]; read-out: half-life (converted),2 h
same,cell membrane permeability,[7],moderate
same,NOAEL,"[8]; 13-week monkey study, oral gavage",60 mg/m^2/day
same,NOAEL at 13 weeks,"[8]; both, cynomolgus monkey, in vivo, po",5 mg/kg/day
same,mean AUC0-24 hr at the NOAEL,"[8]; monkey, Day 91, combined sexes",4015 ng·h/mL
same,AKT phosphorylation in CLL/SLL cells,"[9]; flow cytometry, after one dose (25 mg)",rapid and sustained inhibition
same,doses achieving complete inhibition of PI3K-δ,[9]; patients,≥ 15 mg BID
same,doses increasingly suppressing PI3K-γ,[9]; patients,≥ 25 mg BID
same,NOAEL,"[10]; female, rabbit, in vivo",75 mg/kg/day
same,mean AUC0-24 hr at the NOAEL,"[10]; pregnant rabbits, last day of dosing",66200 ng·h/mL
same,maternal and fetal NOAEL,[10]; rabbit,900 mg/m^2/day
same,rat micronucleus assay,[11],no direct adverse effect
same,MTD,[12],500 mg/kg
same,NOAEL,"[13]; 13-week rat study, oral gavage",150 mg/m^2/day
same,NOAEL at 13 weeks,"[13]; both, rat, in vivo, po",25 mg/kg/day
same,mean AUC0-24 hr at the NOAEL,"[13]; rat, Day 91, combined sexes",14150 ng·h/mL
same,radioactivity in tissues at 24 hr,[14],without quantifiable levels of radioactivity
same,hemodynamic or electrocardiographic parameters,"[15]; single oral dose of 5, 30, and 150 mg/kg",No Compound 292-related effects
same,waveform abnormalities or arrhythmias,[15]; up to 150 mg/kg oral,no waveform abnormalities or arrhythmias
same,half-life,[16],less than 2 hrs
same,AUC(0-inf),"[16]; BALB/c, in vivo, IV, 10 mg/kg",1900 ng·h/mL
same,AUC(0-t),"[16]; BALB/c, in vivo, IV, 10 mg/kg",1900 ng·h/mL
same,Cmax,"[16]; BALB/c, in vivo, IV, 10 mg/kg",5560 ng/mL
same,Tmax,"[16]; BALB/c, in vivo, IV, 10 mg/kg",4.98 min
same,clearance,"[16]; BALB/c, in vivo, IV, 10 mg/kg",87.5 mL/min/kg
same,half-life,"[16]; BALB/c, in vivo, IV, 10 mg/kg, read-out: T1/2 (converted)",0.22 h
same,Vd,"[16]; BALB/c, in vivo, IV, 10 mg/kg, read-out: Vss",1.14 L/kg
same,AUC(0-t),"[16]; BALB/c, in vivo, PO, 10 mg/kg",137 ng·h/mL
same,Cmax,"[16]; BALB/c, in vivo, PO, 10 mg/kg",390 ng/mL
same,Tmax,"[16]; BALB/c, in vivo, PO, 10 mg/kg",4.98 min
same,Foral,"[16]; PO, 10 mg/kg, calculated using AUC0-last",7% and 7^i %
same,P-gp substrate,[17],is a P-gp substrate
same,inhibition of P-gp transport,[17],has the potential to inhibit the active transport of other P-gp substrates

# From patent US20140120083A1, “TREATMENT OF CANCERS USING PI3 KINASE ISOFORM MODULATORS” (INFINITY PHARMACEUTICALS, INC., priority 2012, published 2014)
